The values that follow come from patent US11008334B2, “Compositions and methods for treating cancer” (The Regents of the University of California, priority 2012, dated 2021).

Read-outs that look alike come from different tables or passages of the source.

The target in the experiment is T1, K-RasG12C (1-169) (Homo sapiens, UniProt P01116, G12C).
T1 construct: Un-tagged recombinant K-Ras G12C (1-169) at 4 μM in Buffer A; hexahistidine (cleaved yes); made in house; host or cells: Escherichia coli BL21 (DE)
The experiment is described as follows: Mass spectrometric screen for extent of covalent labeling. The format is binding. The settings on record: for percent covalent labeling at 10 µM: 10 micromolar; for Labeling % (10 micM) 24h: 10 micM compound, (plate) or (single) measurement. Here is the method: Un-tagged recombinant K-Ras G12C (1-169) at 4 μM in Buffer A was reacted with inhibitors at 200 μM or 10 μM (2% DMSO final). At 2, 6, and 24 hrs, 10 μL aliquots were removed and the reactions were stopped by addition of 1 μL 2% formic acid. The extent of modification was determined by mass spectrometry.

Where [1] appears, read: 2 h, 2 hrs, read-out: Percent reduction in activity of compound at 10 micromolar relative to control (no compound), 2 hrs.
Setting [2] is: 6 h, 6 hrs, read-out: Percent reduction in activity of compound at 10 micromolar relative to control (no compound), 6 hrs.
Setting [3] is: 24 h, 24 hrs, read-out: Percent reduction in activity of compound at 10 micromolar relative to control (no compound), 24 hrs.

`C=CS(=O)(=O)NC1CCN(C(=O)Cn2ncc3ccccc32)CC1` [Ras-009]: the percent covalent labeling at 10 µM was no more than 5% under setting [1], no more than 5% under setting [2] and no more than 5% under setting [3].

For `C=CS(=O)(=O)NC1CCN(C(=O)CSc2ccc(Cl)cc2C)CC1` [JO-02-31B], the percent covalent labeling at 10 µM reads like this: under setting [1], no more than 5%; under setting [2], no more than 5%; under setting [3], 5 to 20%.

As for `C=CS(=O)(=O)NC1CCN(C(=O)c2cc3cc(Cl)ccc3[nH]2)CC1` [JO-02-49A], the percent covalent labeling at 10 µM under setting [1] is no more than 5%, the percent covalent labeling at 10 µM under setting [2] is no more than 5% and the percent covalent labeling at 10 µM under setting [3] is no more than 5%.

Take `CN(C)C/C=C/C(=O)NC1CCN(C(=O)COc2ccc(Cl)cc2Cl)CC1` [Ras-007]: the percent covalent labeling at 10 µM is no more than 5% under setting [1], no more than 5% under setting [2] and no more than 5% under setting [3].

Consider `C=CS(=O)(=O)NC1CCN(C(=O)COc2cc(N)c(Cl)cc2Cl)CC1` [Ras-019], for which the percent covalent labeling at 10 µM is no more than 5% under setting [1], no more than 5% under setting [2] and 5 to 20% under setting [3].

`C=CS(=O)(=O)NC1CCN(C(=O)CNc2cc(OC)c(Cl)cc2I)CC1` [Ras-077]: the percent covalent labeling at 10 µM is 5 to 20% under setting [2] and greater than 60% under setting [3].

As to `C=CC(=O)NCCCNC(=O)COc1ccc(Cl)cc1Cl` [JO-02-37B], the percent covalent labeling at 10 µM was no more than 5% under setting [1], no more than 5% under setting [2] and no more than 5% under setting [3].

Consider `C=CS(=O)(=O)NCC(=O)N1CCC(NC(=O)COc2ccc(Cl)cc2Cl)CC1` [JO-02-56B], for which the percent covalent labeling at 10 µM is no more than 5% under setting [1], no more than 5% under setting [2] and 5 to 20% under setting [3].

Take `C=CS(=O)(=O)NC1CCN(C(=O)CSc2nc(C)cs2)CC1` [UP-I-165D]: the percent covalent labeling at 10 µM reads like this: under setting [1], no more than 5%; under setting [2], no more than 5%; under setting [3], no more than 5%.

Regarding `C=CS(=O)(=O)NC1CCN(C(=O)CNc2cc(Cl)c(Cl)cc2CC)CC1` [Ras-059], the “Labeling % (10 micM) 24h” value is “+++++ (single) (60% < +++++)”. Moreover, the percent covalent labeling at 10 µM under setting [1] is no more than 5%. Also, the percent covalent labeling at 10 µM under setting [2] was in the range of 5 to 20%. In addition, the percent covalent labeling at 10 µM under setting [3] is greater than 60%. Besides, the “Labeling % (10 micM) 24h” value (Table 5) is “+++++ (single) (60% < +++++)”.

`C=CS(=O)(=O)NC1CCN(C(=O)COc2c(Cl)cc(Cl)c3cccnc23)CC1` [UP-I-154A]: the percent covalent labeling at 10 µM reads like this: under setting [1], no more than 5%; under setting [2], no more than 5%; under setting [3], no more than 5%.

On to `C=CS(=O)(=O)NCCCNC(=O)COc1ccc(Cl)cc1Cl` [JO-02-36B], for which the percent covalent labeling at 10 µM runs as follows: under setting [1], no more than 5%; under setting [2], no more than 5%; under setting [3], no more than 5%.

With `C=CC(=O)N1CCN(C(=O)CNc2cc(C(F)(F)F)c(Cl)cc2OC)CC1` [Ras-066], the percent covalent labeling at 10 µM reads like this: under setting [1], no more than 5%; under setting [2], no more than 5%; under setting [3], 5 to 20%.

As for `C=CS(=O)(=O)NC1CCN(C(=O)CNc2cc(-c3ccccc3)c(Cl)cc2OC)CC1` [Ras-082], the percent covalent labeling at 10 µM runs as follows: under setting [2], 20 to 40%; under setting [3], greater than 60%.

In the case of `C=CS(=O)(=O)NC1CCN(C(=O)COc2ccc(Cl)cc2F)CC1` [Ras-017], the percent covalent labeling at 10 µM by setting is: under setting [1], no more than 5%; under setting [2], no more than 5%; under setting [3], no more than 5%.

With `C=CS(=O)(=O)NC1CCN(C(=O)COc2ccc(Cl)cc2N)CC1` [Ras-033], the percent covalent labeling at 10 µM runs as follows: under setting [1], no more than 5%; under setting [2], no more than 5%; under setting [3], no more than 5%.

Regarding `C=CS(=O)(=O)NC1CCN(C(=O)CNc2cc(-c3ccccc3)c(Cl)cc2I)CC1` [Ras-086], under setting [3], the percent covalent labeling at 10 µM was in the range of 40 to 60%.

For the compound `C=CS(=O)(=O)NC1CCN(C(=O)COc2cc(CO)c(Cl)cc2Cl)CC1` [Ras-050], the percent covalent labeling at 10 µM was no more than 5% under setting [1], no more than 5% under setting [2] and 5 to 20% under setting [3].

Turning to `C=CS(=O)(=O)N1CCC(Nc2cc(-c3cc(Cl)c(Cl)cc3I)ccn2)CC1` [Ras-072], the percent covalent labeling at 10 µM was no more than 5% under setting [1], no more than 5% under setting [2] and no more than 5% under setting [3].

Consider `C=CS(=O)(=O)NC1CCN(C(=O)COc2ccc(Cl)cc2CN)CC1` [Ras-032], for which the percent covalent labeling at 10 µM was no more than 5% under setting [1], no more than 5% under setting [2] and no more than 5% under setting [3].

For `C=CS(=O)(=O)NC1CCN(C(=O)COc2ccc(Cl)cc2C(F)(F)F)CC1` [Ras-067], the percent covalent labeling at 10 µM is no more than 5% under setting [1], no more than 5% under setting [2] and 5 to 20% under setting [3].

For `C=CS(=O)(=O)NC1CCN(C(=O)CSc2ccc(Cl)cc2Cl)CC1` [JO-02-26], the percent covalent labeling at 10 µM under setting [1] was no more than 5%, the percent covalent labeling at 10 µM under setting [2] is no more than 5% and the percent covalent labeling at 10 µM under setting [3] is 5 to 20%.

Consider `C=CS(=O)(=O)NC1CCN(C(=O)CCn2cnc3ccccc32)CC1` [Ras-012], for which the percent covalent labeling at 10 µM by setting is: under setting [1], no more than 5%; under setting [2], no more than 5%; under setting [3], no more than 5%.

For `C=CS(=O)(=O)NC1CCN(C(=O)COc2ccc(Cl)cc2CNC(C)=O)CC1` [Ras-031], the percent covalent labeling at 10 µM runs as follows: under setting [1], no more than 5%; under setting [2], no more than 5%; under setting [3], no more than 5%.

For the compound `C=CS(=O)(=O)NC1CCN(C(=O)COc2cc(C(N)=O)c(Cl)cc2Cl)CC1` [Ras-035], the percent covalent labeling at 10 µM is no more than 5% under setting [1], no more than 5% under setting [2] and no more than 5% under setting [3].

For `C=CS(=O)(=O)N1CCC2(CN(C(=O)COc3ccc(Cl)cc3Cl)C2)C1` [JO-02-74C], the percent covalent labeling at 10 µM under setting [1] is no more than 5%, the percent covalent labeling at 10 µM under setting [2] was no more than 5% and the percent covalent labeling at 10 µM under setting [3] fell in the range of 5 to 20%.

Consider `C=CS(=O)(=O)N1CCC2(CC1)CN(C(=O)COc1ccc(Cl)cc1Cl)C2` [JO-02-112A], for which the percent covalent labeling at 10 µM is no more than 5% under setting [1], no more than 5% under setting [2] and 5 to 20% under setting [3].

Regarding `C=CS(=O)(=O)NC1CCN(C(=O)COc2ccc(Cl)cc2C(=O)N2CCC(NS(=O)(=O)C=C)CC2)CC1` [Ras-046], the percent covalent labeling at 10 µM runs as follows: under setting [1], no more than 5%; under setting [2], no more than 5%; under setting [3], no more than 5%.

As to `C=CC(=O)N1CC[C@@H](NC(=O)CNc2cc(Cl)c(Cl)cc2I)C1` [JO-02-157A (R)], the percent covalent labeling at 10 µM reads like this: under setting [1], no more than 5%; under setting [2], no more than 5%; under setting [3], no more than 5%.

For `C=CC(=O)NC1CCN(C(=O)Cn2cnc3ccccc32)CC1` [Ras-003], the percent covalent labeling at 10 µM is no more than 5% under setting [1], no more than 5% under setting [2] and no more than 5% under setting [3].

Regarding `C=CS(=O)(=O)NC1CCN(C(=O)COc2ccc(Cl)cc2C(N)=O)CC1` [Ras-023], the percent covalent labeling at 10 µM under setting [1] is no more than 5%, the percent covalent labeling at 10 µM under setting [2] was no more than 5% and the percent covalent labeling at 10 µM under setting [3] is no more than 5%.

As to `C=CS(=O)(=O)NC1CCN(C(=O)Cn2cnc3ccccc32)CC1` [Ras-014], the percent covalent labeling at 10 µM is no more than 5% under setting [1], no more than 5% under setting [2] and no more than 5% under setting [3].

For `C=CC(=O)NC1CCN(C(=O)COc2ccc(Cl)cc2Cl)CC1` [JO-01-171], the percent covalent labeling at 10 µM runs as follows: under setting [1], no more than 5%; under setting [2], no more than 5%; under setting [3], no more than 5%.

As to `C=CS(=O)(=O)NC1CCN(C(=O)C(C)Oc2cc(Cl)c(Cl)cc2Cl)CC1` (stereo not drawn) [JO-02-116A], the percent covalent labeling at 10 µM was no more than 5% under setting [1], no more than 5% under setting [2] and no more than 5% under setting [3].

With `C=CC(=O)NC1CCN(C(=O)Cn2ncc3ccccc32)CC1` [Ras-004], the percent covalent labeling at 10 µM was no more than 5% under setting [1], no more than 5% under setting [2] and no more than 5% under setting [3].

With `C=CS(=O)(=O)NC1CCN(C(=O)CSc2nnc(C)o2)CC1` [UP-I-164B], the percent covalent labeling at 10 µM was no more than 5% under setting [1], no more than 5% under setting [2] and no more than 5% under setting [3].

Consider `C=CC(=O)NC1CCN(C(=O)CCn2cnc3ccccc32)CC1` [Ras-005], for which the percent covalent labeling at 10 µM by setting is: under setting [1], no more than 5%; under setting [2], no more than 5%; under setting [3], no more than 5%.

On to `C=CS(=O)(=O)NC1CCN(C(=O)COc2ccc(Cl)cc2C(=O)N(C)C)CC1` [Ras-025], for which the percent covalent labeling at 10 µM was no more than 5% under setting [1], no more than 5% under setting [2] and no more than 5% under setting [3].

`C=CC(=O)N1CCN(C(=O)CNc2cc(Cl)c(Cl)cc2OC)CC1` [Ras-062]: the “Labeling % (10 micM) 24h” value is given as “+++ (single) (20%< +++ <=40%)”. Moreover, under setting [1], the percent covalent labeling at 10 µM is no more than 5%. Moreover, the percent covalent labeling at 10 µM under setting [2] is no more than 5%. Also, the percent covalent labeling at 10 µM under setting [3] fell in the range of 20 to 40%. The “Labeling % (10 micM) 24h” value (Table 5) is given as “+++ (single) (20%< +++ <=40%)”.
